What was measured:
Assay in all cases: Post-emergence test experiment (greenhouse pot, spray at 2-3 leaf stage)
Type in all cases: in vivo
Conditions in all cases: 1000 g/ha; post-emergence spray at 2-3 leaf stage; assessed after 3 weeks; fresh weight inhibition rate
[1] = system: Galium spurium
In short: (§1)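 Activity graded levels 0-5 by fresh-weight inhibition (level 5 above 85%, level 0 below 5%), assessed 3 weeks after treatment. Plants grown in greenhouse pots were sprayed post-emergence at 2-3 leaves using acetone/tween-80 solutions with methyl oleate synergist (1.5 L/ha).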

[2] = system: Echinochloa crusgalli
In short: as §1

[3] = system: Monochoria vaginalis
In short: as §1

[4] = system: Digitaria sanguinalis
In short: as §1

[5] = system: Abutilon theophrasti
In short: as §1

Row | Structure (SMILES) | Activity level (growth inhibition rate) Galium spurium [1] | Activity level (growth inhibition rate) Echinochloa crusgalli [2] | Activity level (growth inhibition rate) Monochoria Vaginalis [3] | Activity level (growth inhibition rate) Digitaria sanguinalis [4] | Activity level (growth inhibition rate) Abutilon theophrasti [5]
1 | CC(Oc1nc(F)c(C(F)(F)F)c(N)c1Cl)C(=O)OCc1ccccc1 (centres unmarked) [Compound 15] | 5 (Level 5: the growth inhibition rate is greater than 85%) | 5 (Level 5: the growth inhibition rate is greater than 85%) | 5 (Level 5: the growth inhibition rate is greater than 85%) | 5 (Level 5: the growth inhibition rate is greater than 85%) | 5 (Level 5: the growth inhibition rate is greater than 85%)
2 | CC(Oc1ncc(Cl)c(N)c1C(F)(F)F)C(=O)OCc1ccccc1 (centres unmarked) [Compound 16] | 5 (Level 5: the growth inhibition rate is greater than 85%) | 5 (Level 5: the growth inhibition rate is greater than 85%) | 5 (Level 5: the growth inhibition rate is greater than 85%) | 5 (Level 5: the growth inhibition rate is greater than 85%) | 5 (Level 5: the growth inhibition rate is greater than 85%)
3 | CC(Oc1nc(I)c(Cl)c(N)c1Cl)C(=O)SCc1ccccc1 (centres unmarked) [Compound 17] | 5 (Level 5: the growth inhibition rate is greater than 85%) | 5 (Level 5: the growth inhibition rate is greater than 85%) | 5 (Level 5: the growth inhibition rate is greater than 85%) | 5 (Level 5: the growth inhibition rate is greater than 85%) | 5 (Level 5: the growth inhibition rate is greater than 85%)
4 | CCCc1c(OC(C)C(=O)OCc2ccccc2)nc(Br)c(Cl)c1N (centres unmarked) [Compound 18] | 5 (Level 5: the growth inhibition rate is greater than 85%) | 5 (Level 5: the growth inhibition rate is greater than 85%) | 5 (Level 5: the growth inhibition rate is greater than 85%) | 5 (Level 5: the growth inhibition rate is greater than 85%) | 5 (Level 5: the growth inhibition rate is greater than 85%)
5 | Cc1nc(OC(C)C(=O)OCc2ccccc2)c(C)c(N)c1C (centres unmarked) [Compound 19] | 5 (Level 5: the growth inhibition rate is greater than 85%) | 5 (Level 5: the growth inhibition rate is greater than 85%) | 5 (Level 5: the growth inhibition rate is greater than 85%) | 5 (Level 5: the growth inhibition rate is greater than 85%) | 5 (Level 5: the growth inhibition rate is greater than 85%)
6 | Cc1c(OC(C)C(=O)OCc2ccccc2)ncc(Cl)c1N (centres unmarked) [Compound 21] | 5 (Level 5: the growth inhibition rate is greater than 85%) | 5 (Level 5: the growth inhibition rate is greater than 85%) | 5 (Level 5: the growth inhibition rate is greater than 85%) | 5 (Level 5: the growth inhibition rate is greater than 85%) | 5 (Level 5: the growth inhibition rate is greater than 85%)
7 | CC(Oc1nc(F)c(Cl)c(N)c1C1CC1)C(=O)OCc1ccccc1 (centres unmarked) [Compound 22] | 5 (Level 5: the growth inhibition rate is greater than 85%) | 5 (Level 5: the growth inhibition rate is greater than 85%) | 5 (Level 5: the growth inhibition rate is greater than 85%) | 5 (Level 5: the growth inhibition rate is greater than 85%) | 5 (Level 5: the growth inhibition rate is greater than 85%)

— patent US12049450B2, “Pyridyloxy-carboxylate derivative and preparation method therefor, herbicidal composition, and use” (Qingdao Kingagroot Chemical Compound Co., Ltd., priority 2018, dated 2024)
